Results from PMC9323733, “Efficacy of Vafidemstat in Experimental Autoimmune Encephalomyelitis Highlights the KDM1A/RCOR1/HDAC Epigenetic Axis in Multiple Sclerosis” (Pharmaceutics, 2022).

Assays:
human S1P1 receptor = target: T1, human S1P1 receptor (Homo sapiens, UniProt P21453); assay: CellKey impedance assay in CHO cells, agonistic and antagonistic effect; type: cell-based
T1 construct: host or cells: CHO cells
Procedure: Cell on impedance modulation, using the CellKey (Cellular Dielectric Spectroscopy) detection method (CellKey 96, MDS Sciex, Concord, ON, Canada) at Eurofins Pharma Discovery Services (Celle-Lévescault, France). CHO cells were seeded onto a 96-well plate at 15.104 cells/well in HBSS buffer (Invitrogen), 20 mM HEPES (Invitrogen), 10% FCS (Invitrogen), and 0.1% BSA (Sigma), allowed to equilibrate for 60 min at 28 °C. DMSO solutions of compounds were diluted in HBSS and 0.1% BSA. Plates were placed onto the system, and measurements were made at a temperature of 28 °C. To measure the agonistic effect, compounds and controls in duplicate were added simultaneously to all of the wells using an integrated fluidics system. Impedance measurements were monitored for 10 min after ligand addition. […] To measure the antagonistic effect, compounds and controls in duplicate were pre-incubated for 15 min before the addition of the reference agonist S1P at 0.01 µM (EC80). Impedance measurements were monitored for 10 min.
Evaluation of the agonistic (a) and antagonist (b) effect of the compounds on the human S1P1 receptor. […] Data are expressed as percentage of control (no compound) activity, n = 2. TSA was used as a control; (d) Cellular HDAC activity assay. […] SAHA was used as a control. Ponceau S staining was used as loading control. Veh: Vehicle. […] TSA: Trichostatin A. SAHA: suberoylanilide hydroxamic acid.

KDM1A = KDM1A (Homo sapiens, UniProt O60341); assay: In vitro potency, KDM1A inhibition; type: biochemical
[1] = system: C57BL/6 mice with chronic EAE; assay: Chronic EAE induced by MOG35–55, clinical score; type: in vivo, mouse
Procedure: Mice also received i.p. injections of 200 ng of pertussis toxin on days 0 and 2 [32]. Immunized mice were randomly distributed in different groups. […] MPTP is a prodrug which is converted to the neurotoxin 1-methyl-4-phenylpyridinium (MPP+) by MAO-B in vivo.
Compounds were administered once daily for five consecutive days in two cycles, from day 12 to 16 and from day 19 to 23 post-immunization. […] HPβCD was included to facilitate dissolution. Mice were scored daily for signs of EAE according to the following clinical scoring system: 0, no clinical signs; 0.5, partial loss of tail tonicity; 1, complete loss of tail tonicity; 2, flaccid tail and abnormal gait; 3, complete hind leg paralysis; 4, hind leg paralysis with hind body paresis; 5, hind and foreleg paralysis; and 6, death. Intermediate phenotypes were scored as a half integer. Animals were sacrificed when they kept a score of 5 more than 24 h. Investigators which administered the compounds and scored the animals were blinded to the treatments.

SH-SY5Y cells = assay: Human H3 acetylation assay (Western blot), cellular HDAC activity; type: cell-based; conditions: 1 and 0.1 µM, 2 and 6 h
Procedure: Human H3 acetylation assays: for the determination of global and K9-specific acetylation levels, 500,000 SH-SY5Y cells were seeded in 6-well plates in DMEM/F12 1:1 (Sigma), supplemented with 2 mM glutamine (LabClinics) and 10% FBS (Sigma) and incubated at 37 °C and 5% CO2 in a humid atmosphere. […] After 2 and 6 h of treatment, cells were harvested and centrifuged at 250× g for 4 min at room temperature and cell pellets used for total histone extraction with EpiQuik Total Histone Extraction Kit (Epigentek, Farmingdale, NY, USA) following manufacturer’s instructions. 1 µg of histone extracts were run in MOPS buffer in 12% PAGE (Life Technologies, Carlsbad, CA, USA) and transferred with the iBlot system to nitrocellulose membranes. Transferred blots were stained with the Ponceau S solution (Sigma) and scanned with an Epson Perfection V600 Photo Scanner. Membranes were blocked in blocking buffer (5% skimmed milk in PBS-Tween 0.1%) for 1 h at room temperature, and after blocking blots were incubated with rabbit polyclonal anti-H3K9Ac (1:2000 dilution, Abcam, Cambridge, UK) and rabbit polyclonal anti-H3ac (K9 + K14 + K18 + K23 + K27) (1:2000 dilution, Abcam) overnight at 4 °C in ablocking buffer. […]

recombinant HDAC2 = target: T2, recombinant HDAC2 (Homo sapiens, UniProt Q92769); assay: HDAC2 fluorimetric biochemical assay
T2 construct: purchased BPS Bioscience 50002
T2 sequence (Q92769 whole entry): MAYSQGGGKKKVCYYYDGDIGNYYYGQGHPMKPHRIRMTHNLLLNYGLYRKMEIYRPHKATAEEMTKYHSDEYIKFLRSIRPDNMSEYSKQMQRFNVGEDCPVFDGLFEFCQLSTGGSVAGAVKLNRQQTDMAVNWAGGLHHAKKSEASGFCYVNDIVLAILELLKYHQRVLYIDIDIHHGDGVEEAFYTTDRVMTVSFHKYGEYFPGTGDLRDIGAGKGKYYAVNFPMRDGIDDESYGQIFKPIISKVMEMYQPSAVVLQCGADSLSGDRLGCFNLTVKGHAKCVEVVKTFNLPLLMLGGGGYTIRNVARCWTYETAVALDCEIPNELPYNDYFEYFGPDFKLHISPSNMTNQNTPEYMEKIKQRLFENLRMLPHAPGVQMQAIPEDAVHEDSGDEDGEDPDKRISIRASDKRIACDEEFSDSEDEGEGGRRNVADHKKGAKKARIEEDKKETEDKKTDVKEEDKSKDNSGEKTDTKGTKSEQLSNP
Procedure: HDAC2 activity was determined using a fluorimetric assay at BPS Bioscience (San Diego, CA, USA). Compounds were dissolved in DMSO (Sigma), and serial dilutions were further diluted in HDAC assay buffer (BPS). These working solutions were incubated in duplicate at room temperature for 3 h in a mixture containing HDAC assay buffer, BSA (Fisher Scientific), and recombinant HDAC2 (BPS). The enzymatic reactions were initiated by the addition of a fluorogenic, acetylated peptide substrate (BPS) and proceeded for 30 min at 37 °C. Then, HDAC assay developer (BPS) was added, and after further incubation at room temperature, fluorescence intensity was measured at an excitation of 360 nm and an emission of 460 nm using a Tecan Infinite M1000 microplate reader. Trichostatin A (TSA, Selleckchem, Houston, TX, USA) was used as a reference inhibitor.
For the biochemical assays, the fluorescence signal relative to the background (assay mixture in the absence of the enzyme) was subtracted from each fluorescent intensity data. Activity in the presence of compound was expressed as a percentage of fluorescence intensity in the absence of the compound.

T1 sequence (P21453 whole entry): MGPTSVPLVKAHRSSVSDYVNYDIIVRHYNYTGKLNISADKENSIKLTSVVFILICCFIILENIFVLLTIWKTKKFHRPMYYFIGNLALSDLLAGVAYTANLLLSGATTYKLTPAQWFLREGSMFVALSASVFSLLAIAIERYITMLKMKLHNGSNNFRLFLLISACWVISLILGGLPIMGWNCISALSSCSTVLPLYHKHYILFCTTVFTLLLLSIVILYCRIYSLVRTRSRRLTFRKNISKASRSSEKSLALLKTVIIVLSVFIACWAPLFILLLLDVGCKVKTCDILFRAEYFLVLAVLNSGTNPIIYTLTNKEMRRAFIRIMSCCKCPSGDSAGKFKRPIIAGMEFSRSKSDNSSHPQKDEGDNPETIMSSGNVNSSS

Question: How did the “EC80, reference agonist” value (human S1P1 receptor; concentration used in antagonist mode) turn out when `CCCCCCCCCCCCC/C=C/[C@@H](O)[C@@H](N)COP(=O)(O)O` [S1P] was run?
Answer: The value was 0.01 µM.

Question: And the EC50 (human S1P1 receptor; impedance, agonistic effect, read-out: EC50, reference agonist)?
Answer: The EC50 was 0.001 µM.

Question: How did the IC50 (human S1P1 receptor; impedance, vs S1P at 0.01 µM, read-out: IC50, reference antagonist) turn out when `CCCCCCCCc1cccc(NC(=O)[C@H](N)COP(=O)(O)O)c1` [VPC23019] was run?
Answer: The IC50 was 0.027 µM.

Question: Which results are given for `C#CCN[C@@H]1CCc2ccccc21` [rasagiline, reference compound]?
Answer: IC50 (KDM1A): > 100 µM; mice with no or only mild clinical signs at the end of the study ([1]; EAE experiment 2): 44%; effect on clinical course / disease severity ([1]; EAE experiment 2 (mild), p.o. ORY-2001 0.05, 0.5, 1 mg/kg, ORY-LSD1 90, 180 µg/kg, rasagiline 3 mg/kg): showed no overall protective effect; animals with severe signs (maximum clinical score 3.5–6) ([1]; EAE experiment 2, highest dose tested): 33%; onset of clinical signs ([1]; EAE experiment 2, rasagiline 3 mg/kg): slight delay of the onset of the clinical signs

Question: Which results are given for `CCCCCCCCc1ccc(CC[C@](N)(CO)COP(=O)(O)O)cc1` [FTY720-P, Fingolimod Phosphate]?
Answer: impact on cellular HDAC activity (acetylated H3 or H3K9 levels) (SH-SY5Y cells): unable to confirm the previous studies reporting that FTY720 or FTY720-P had any significant impact; impact on recombinant HDAC2 activity (recombinant HDAC2): unable to confirm the previous studies reporting that FTY720 or FTY720-P had any significant impact
